The subject of one assay is GP2D cells. The experiment in a line: Cell proliferation assay (CellTiter-Glo), K-Ras G12D cells. In kind it is cell-based. Particulars: read-out: Inhibition of GP2D Cells (IC50). Here is the method:
ASPC-1 (ATCC CRL-1682), Panc-10.05 (ATCC CRL-2547), A427, and GP2D (Sigma 95090714) cell lines comprise a G12D mutation and can be used to assess Ras cellular signaling in vitro, e.g., in response to the compounds herein. […] ASPC-1 culture medium is prepared with RPMI-1640 and 10% heat-inactivated FBS. Panc-10.05 culture medium is prepared with RPMI-1640, 10 Units/ml human recombinant insulin, and 10% FBS. A427 cell culture is prepared with RPMI-1640 and 10% heat-inactivated FBS. GP2D culture medium is prepared with DMEM with 2mM glutamine and 10% heat-inactivated FBS. A Cell Titer-Glo (CTG) luminescent based assay (Promega) is used to assess growth of the cells, as a measurement of the ability of the compounds herein to inhibit Ras signaling in the cells. The cells (e.g., 800 per well) are seeded in their respective culture medium in standard tissue culture-treated 384-well format plates (Falcon #08-772-116) or ultra-low attachment surface 384-well format plates (S-Bio # MS-9384UZ ). The day after plating, cells are treated with a dilution series (e.g., a 9 point 3-fold dilution series) of the compounds herein (e.g., approximately 40 µl final volume per well). Cell viability can be monitored (e.g., approximately 5 days later) according to the manufacturer's recommended instructions, where the CellTiter-Glo reagent is added (e.g., approximately 10 µl), vigorously mixed, covered, and placed on a plate shaker (e.g., approximately for 20 min) to ensure sufficient cell lysis prior to assessment of luminescent signal. The IC50 values are determined using the four parameter fit. The resulting IC50 value is a measurement of the ability of the compounds herein to reduce cell growth of Ras-driven cells (e.g., tumor cell lines) in vitro and/or in vivo.
A general note: ATP-based viability assays read luminescence as a measure of living cells.

In a further assay the target is T1, K-Ras G12S (Homo sapiens, UniProt P01116, G12S).
T1 construct: made in house; host or cells: E. coli (e.g., BL21 (DE3))
The experiment in a line: HTRF assay of the K-Ras / SOS1 interaction. Format: biochemical. Particulars: IC50 (against K-Ras G12D) to IC50 (against K-Ras G12S). An outline of the steps:
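GST-K-Ras G12S with anti-GST-Eu donor and His-hSOS1 with anti-6His-XL665 acceptor in ~5 mM HEPES pH 7.4, ~150 mM NaCl, 1 mM DTT, 0.05% BSA, 0.0025% Igepal. Read after ~10 min or longer; IC50 from 665/620 nm ratio, duplicates at 10 µM down to 0.01 µM.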
In general terms: Time-resolved FRET reads energy transfer from a long-lived donor to a nearby acceptor.

This is an account of results in patent EP4389751A1, “HETEROCYCLIC COMPOUNDS AND USES THEREOF” (Kumquat Biosciences Inc., priority 2021, dated 2024).

Read-outs that look alike come from different tables or passages of the source.

“2-amino-4-(6-chloro-8-fluoro-2-(((2R,7aS)-2-fluorotetrahydro-1H-pyrrolizin-7 a(5H)-yl)methoxy)-4-(8-(4-methyl-1H-1,2,3-triazole-1-carbonyl)-3,8-diazabicyclo[3.2.1]octan-3-yl)quinazolin-7-yl)-7-fluorobenzo[b]thiophene-3-carbonitrile [Compound A189]”: the 50% inhibitory concentration (IC50) in the assay with GP2D cells (GP2D cells (K-Ras G12D)) was not above 1 µM. Moreover, on K-Ras G12S, the “Ratio of IC50 KRAS G12D vs. IC50 KRAS G12S” value (“Ratio” for short) is “A (A: indicates that the ratio of IC50 against KrasG12D vs. IC50 against KrasG12S is 1-fold or greater)”.

With `Nc1nc2c(-c3c(Cl)cc4c(N5CC6CCC(C5)N6C(=O)n5cc(F)cn5)nc(OC[C@@]56CCCN5C[C@H](F)C6)nc4c3F)ccc(F)c2s1` [Compound A101, (3-(7-(2-amino-7-fluorobenzo[d]thiazol-4-yl)-6-chloro-8-fluoro-2-(((2R,7aS)-2-fluorotetrahydro-1H-pyrrolizin-7a(5H)-yl)methoxy)quinazolin-4-yl)-3,8-diazabicyclo[3.2.1]octan-8-yl)(4-fluoro-1H-pyrazol-1-yl)methanone], the IC50 in the assay on GP2D cells (GP2d) is 1 to 10 µM. In addition, the “Ratio” value on K-Ras G12S is recorded as “A (A: indicates that the ratio of IC50 against KrasG12D vs. IC50 against KrasG12S is 1-fold or greater)”.

For `N#Cc1cnn(C(=O)N2CC3CCC(C2)N3c2nc(OC[C@@]34CCCN3C[C@H](F)C4)nc3c(F)c(-c4ccc(F)c5sc(N)nc45)c(Cl)cc23)c1` [Compound A112, 1-(8-(7-(2-amino-7-fluorobenzo[d]thiazol-4-yl)-6-chloro-8-fluoro-2-(((2R,7aS)-2-fluorotetrahydro-1H-pyrrolizin-7a(5H)-yl)methoxy)quinazolin-4-yl)-3,8-diazabicyclo[3.2. 1]octane-3-carbonyl)-1H-pyrazole-4-carbonitrile], the IC50 in the assay on GP2D cells (GP2d) is not above 1 µM. Also, at K-Ras G12S, the “Ratio” value is on record as “A (A: indicates that the ratio of IC50 against KrasG12D vs. IC50 against KrasG12S is 1-fold or greater)”.

Consider `Nc1nc2c(-c3c(Cl)cc4c(NC5CCN(C(=O)n6ccnc6)CC5)nc(OC[C@@]56CCCN5C[C@H](F)C6)nc4c3F)ccc(F)c2s1` [Compound A117, (4-((7-(2-amino-7-fluorobenzo[d]thiazol-4-yl)-6-chloro-8-fluoro-2-(((2R,7aS)-2-fluorotetrahydro-1H-pyrrolizin-7a(5H)-yl)methoxy)quinazolin-4-yl)amino)piperidin-1-yl)(1H-imidazol-1-yl)methanone], for which the IC50 in the assay on GP2D cells (GP2D cells (K-Ras G12D)) fell in the range of 1 to 10 µM. In addition, the “Ratio” value on K-Ras G12S was “A (A: indicates that the ratio of IC50 against KrasG12D vs. IC50 against KrasG12S is 1-fold or greater)”.

`N#Cc1cccn1C(=O)N1C2CCC1CN(c1nc(OC[C@@]34CCCN3C[C@H](F)C4)nc3c(F)c(-c4ccc(F)c5sc(N)nc45)c(Cl)cc13)C2` [Compound A121, 1-(3-(7-(2-amino-7-fluorobenzo[d]thiazol-4-yl)-6-chloro-8-fluoro-2-(((2R,7aS)-2-fluorotetrahydro-1H-pyrrolizin-7a(5H)-yl)methoxy)quinazolin-4-yl)-3,8-diazabicyclo[3.2. 1]octane-8-carbonyl)-1H-pyrrole-2-carbonitrile]: the IC50 in the assay on GP2D cells (GP2d) was not above 1 µM. Also, the “Ratio” value at K-Ras G12S is listed as “A (A: indicates that the ratio of IC50 against KrasG12D vs. IC50 against KrasG12S is 1-fold or greater)”.

In the case of `Nc1nc2c(-c3c(Cl)cc4c(N5CC6CCC(C5)N6C(=O)Nc5cncnc5)nc(OC[C@@]56CCCN5C[C@H](F)C6)nc4c3F)ccc(F)c2s1` [Compound A124, 3-(7-(2-amino-7-fluorobenzo[d]thiazol-4-yl)-6-chloro-8-fluoro-2-(((2R,7aS)-2-fluorotetrahydro-1H-pyrrolizin-7a(5H)-yl)methoxy)quinazolin-4-yl)-N-(pyrimidin-5-yl)-3,8-diazabicyclo[3.2. 1]octane-8-carboxamide], the concentration for half-maximal inhibition (IC50) in the assay on GP2D cells (GP2d) is not above 1 µM. Moreover, at K-Ras G12S, the “Ratio” value is recorded as “A (A: indicates that the ratio of IC50 against KrasG12D vs. IC50 against KrasG12S is 1-fold or greater)”.

On to `Nc1nc2c(-c3c(Cl)cc4c(N5CC6CCC(C5)N6C(=O)n5cccn5)nc(OC[C@@]56CCCN5C[C@H](F)C6)nc4c3F)ccc(F)c2s1` [Compound A130, (3-(7-(2-amino-7-fluorobenzo[d]thiazol-4-yl)-6-chloro-8-fluoro-2-(((2R,7aS)-2-fluorotetrahydro-1H-pyrrolizin-7a(5H)-yl)methoxy)quinazolin-4-yl)-3,8-diazabicyclo[3.2.1]octan-8-yl)(1H-pyrazol-1-yl)methanone], for which the IC50 with GP2D cells (GP2d) fell in the range of 1 to 10 µM. Besides, the “Ratio” value at K-Ras G12S is on record as “A (A: indicates that the ratio of IC50 against KrasG12D vs. IC50 against KrasG12S is 1-fold or greater)”.

As for `Nc1nc2c(-c3c(Cl)cc4c(N5CC6CCC(C5)N6C(=O)n5cnc(F)c5)nc(OC[C@@]56CCCN5C[C@H](F)C6)nc4c3F)ccc(F)c2s1` [Compound A135, (3-(7-(2-amino-7-fluorobenzo[d]thiazol-4-yl)-6-chloro-8-fluoro-2-(((2R,7aS)-2-fluorotetrahydro-1H-pyrrolizin-7a(5H)-yl)methoxy)quinazolin-4-yl)-3,8-diazabicyclo[3.2.1]octan-8-yl)(4-fluoro-1H-imidazol-1-yl)methanone], the IC50 with GP2D cells (GP2d) is not above 1 µM. Also, the “Ratio” value on K-Ras G12S is listed as “A (A: indicates that the ratio of IC50 against KrasG12D vs. IC50 against KrasG12S is 1-fold or greater)”.

Regarding `N#Cc1c(N)sc2c(F)ccc(-c3c(Cl)cc4c(N5CC6CCC(C5)N6C(=O)n5cccc5C#N)nc(OC[C@@]56CCCN5C[C@H](F)C6)nc4c3F)c12` [Compound A138, 1-(3-(7-(2-amino-3-cyano-7-fluorobenzo[b]thiophen-4-yl)-6-chloro-8-fluoro-2-(((2R,7aS)-2-fluorotetrahydro-1H-pyrrolizin-7a(5H)-yl)methoxy)quinazolin-4-yl)-3,8-diazabicyclo[3.2. 1]octane-8-carbonyl)-1H-pyrrole-2-carbonitrile], the IC50 in the assay on GP2D cells (GP2d) was not above 1 µM. In addition, on K-Ras G12S, the “Ratio” value is given as “A (A: indicates that the ratio of IC50 against KrasG12D vs. IC50 against KrasG12S is 1-fold or greater)”.

Turning to `Nc1nc2c(-c3c(Cl)cc4c(N5CCCC56CCCN(C(=O)n5cncn5)C6)nc(OC[C@@]56CCCN5C[C@H](F)C6)nc4c3F)ccc(F)c2s1` (stereo partly drawn) [Compound A144, (1-(7-(2-amino-7-fluorobenzo[d]thiazol-4-yl)-6-chloro-8-fluoro-2-(((2R,7aS)-2-fluorotetrahydro-1H-pyrrolizin-7a(5H)-yl)methoxy)quinazolin-4-yl)-1,7-diazaspiro[4.5]decan-7-yl)(1H-1,2,4-triazol-1-yl)methanone], the IC50 with GP2D cells (GP2D cells (K-Ras G12D)) was in the range of 1 to 10 µM. For the same compound, the “Ratio” value at K-Ras G12S is “A (A: indicates that the ratio of IC50 against KrasG12D vs. IC50 against KrasG12S is 1-fold or greater)”.

For `Cc1cnn(C(=O)N2CCN(c3nc(OC[C@@]45CCCN4C[C@H](F)C5)nc4c(F)c(-c5ccc(F)c6sc(N)nc56)c(Cl)cc34)CC2)c1` [Compound A149, (4-(7-(2-amino-7-fluorobenzo[d]thiazol-4-yl)-6-chloro-8-fluoro-2-(((2R,7aS)-2-fluorotetrahydro-1H-pyrrolizin-7a(5H)-yl)methoxy)quinazolin-4-yl)piperazin-1-yl)(4-methyl-1H-pyrazol-1-yl)methanone], the IC50 with GP2D cells (GP2D cells (K-Ras G12D)) lay within 1 to 10 µM. The “Ratio” value on K-Ras G12S is “A (A: indicates that the ratio of IC50 against KrasG12D vs. IC50 against KrasG12S is 1-fold or greater)”.

For the compound `N#Cc1cnn(C(=O)N2CCC(Nc3nc(OC[C@@]45CCCN4C[C@H](F)C5)nc4c(F)c(-c5ccc(F)c6sc(N)nc56)c(Cl)cc34)CC2)c1` [Compound A151, 1-(4-((7-(2-amino-7-fluorobenzo[d]thiazol-4-yl)-6-chloro-8-fluoro-2-(((2R,7aS)-2-fluorotetrahydro-1H-pyrrolizin-7a(5H)-yl)methoxy)quinazolin-4-yl)amino)piperidine-1-carbonyl)-1H-pyrazole-4-carbonitrile], in the assay with GP2D cells (GP2D cells (K-Ras G12D)), the IC50 lay in the range of 1 to 10 µM. In addition, on K-Ras G12S, the “Ratio” value is recorded as “A (A: indicates that the ratio of IC50 against KrasG12D vs. IC50 against KrasG12S is 1-fold or greater)”.

For the compound `Nc1nc2c(-c3c(Cl)cc4c(NCCN5CCN(C(=O)n6cncn6)CC5)nc(OC[C@@]56CCCN5C[C@H](F)C6)nc4c3F)ccc(F)c2s1` [Compound A156, (4-(2-((7-(2-amino-7-fluorobenzo[d]thiazol-4-yl)-6-chloro-8-fluoro-2-(((2R,7aS)-2-fluorotetrahydro-1H-pyrrolizin-7a(5H)-yl)methoxy)quinazolin-4-yl)amino)ethyl)piperazin-1-yl)(1H-1,2,4-triazol-1-yl)methanone], the IC50 with GP2D cells (GP2D cells (K-Ras G12D)) was 1 to 10 µM. Further, the “Ratio” value on K-Ras G12S is listed as “A (A: indicates that the ratio of IC50 against KrasG12D vs. IC50 against KrasG12S is 1-fold or greater)”.

What is called IC50 is the concentration needed to halve the response being measured.
